# US9439843B2, “Oral care compositions” (Colgate-Palmolive Company, priority 2011, dated 2016)
# Test: Solubility of isobutyl magnolol (statement in words)
# Assay type: physicochemical
# Details: background statement
smiles,measurement,value
"CC(C)Cc1ccc(O)c(-c2cc(CC(C)C)ccc2O)c1 [isobutyl magnolol, 5,5′-di(2-methylpropyl)-biphenyl-2,2′-diol]",solubility both in water and in oil,extremely poor
